Counter-ions that a name gives are not always drawn.

The target in this experiment is T1, H^+/K^+-ATPase (Sus scrofa, UniProt P19156).
T1 construct: used as an enzyme source of the in vitro enzyme reaction assay of proton pump; from tissue; host or cells: hog gastric fundic mucosa (membrane vesicles, lyophilized)
T1 sequence (P19156 2-1034 limits assumed): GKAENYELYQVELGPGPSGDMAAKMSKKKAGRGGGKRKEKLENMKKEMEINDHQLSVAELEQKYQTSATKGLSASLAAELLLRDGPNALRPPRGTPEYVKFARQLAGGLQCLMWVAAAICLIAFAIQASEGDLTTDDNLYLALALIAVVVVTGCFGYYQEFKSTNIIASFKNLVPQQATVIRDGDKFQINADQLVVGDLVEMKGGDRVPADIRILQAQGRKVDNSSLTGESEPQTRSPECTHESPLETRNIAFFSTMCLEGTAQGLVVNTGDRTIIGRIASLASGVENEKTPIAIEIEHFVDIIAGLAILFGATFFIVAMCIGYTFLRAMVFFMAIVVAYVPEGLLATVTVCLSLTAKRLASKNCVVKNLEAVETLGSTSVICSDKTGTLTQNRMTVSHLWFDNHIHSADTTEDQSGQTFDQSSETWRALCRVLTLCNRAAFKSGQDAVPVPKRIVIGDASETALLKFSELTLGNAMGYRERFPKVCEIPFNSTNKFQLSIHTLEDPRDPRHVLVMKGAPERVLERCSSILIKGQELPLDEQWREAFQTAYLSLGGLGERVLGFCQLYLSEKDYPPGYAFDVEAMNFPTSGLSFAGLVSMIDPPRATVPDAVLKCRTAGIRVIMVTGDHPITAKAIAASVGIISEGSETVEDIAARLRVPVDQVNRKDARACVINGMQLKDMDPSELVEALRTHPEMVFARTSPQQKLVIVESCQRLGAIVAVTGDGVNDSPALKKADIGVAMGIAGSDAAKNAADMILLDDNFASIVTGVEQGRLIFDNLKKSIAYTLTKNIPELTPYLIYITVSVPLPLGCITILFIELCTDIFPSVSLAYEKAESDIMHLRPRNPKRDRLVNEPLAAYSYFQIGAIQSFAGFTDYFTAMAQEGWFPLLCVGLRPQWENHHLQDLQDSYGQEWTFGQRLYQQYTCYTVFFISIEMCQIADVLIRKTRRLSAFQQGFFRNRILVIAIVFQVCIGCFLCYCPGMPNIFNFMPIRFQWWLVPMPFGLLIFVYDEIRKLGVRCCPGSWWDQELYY
T1 sequence (P18434 whole entry partner): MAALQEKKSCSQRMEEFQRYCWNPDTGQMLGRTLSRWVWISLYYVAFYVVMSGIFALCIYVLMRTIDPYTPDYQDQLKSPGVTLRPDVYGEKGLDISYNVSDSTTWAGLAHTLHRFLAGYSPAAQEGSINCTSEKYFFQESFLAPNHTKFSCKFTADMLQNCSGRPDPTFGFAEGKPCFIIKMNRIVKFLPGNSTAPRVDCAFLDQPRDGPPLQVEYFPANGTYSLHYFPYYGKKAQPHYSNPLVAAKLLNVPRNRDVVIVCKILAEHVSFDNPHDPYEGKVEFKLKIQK
In words: Inhibitory effects on proton pump (H^+/K^+-ATPase) activity, hog gastric vesicles. The experiment is classed as biochemical. The note with it: K^+ stimulated H^+/K^+-ATPase activity, hog gastric vesicle, Pi measured at 620 nm. Here is the method: Preparation of Gastric Proton Pump Vesicles
The hog fundic regions containing parietal and peptic cells were scraped with slide-glass. The collected cells were suspended in 10 ml of 0.25M sucrose buffer and homogenized using a tight-fitting Teflon-glass homogenizer. The homogenate was centrifuged for 35 min at 8,000 rpm and the pellet was discarded. The supernatant was further centrifuged for 75 min at 25,000 rpm. The resulting pellets were re-suspended in the sucrose buffer (10 ml), and then the suspension was laid onto discontinuous density gradients consisting of 0.25M sucrose buffer and isolation medium containing 9% Ficoll (w/w). After being centrifuged for 3 hours and 15 minutes at 100,000×g, the material at the interface of sucrose buffer and Ficoll solution was collected and then centrifuged for 40 minutes at 100,000×g. The resulting pellets were re-suspended in 1 ml of 5 mM Hepes/Tris buffer (pH 6.1). This material was lyophilized and stored at −70° C. and used as an enzyme source of the in vitro enzyme reaction assay of proton pump.
1-2. Measurement of Inhibitory Effects on Proton Pump (H+/K+-ATPase) activity
The inhibitory effects of the compounds of the present invention against proton pump activity were evaluated in 96-well plate. In this assay, the K^+ specific H^+/K^+-ATPase activity was calculated based on the difference between the activity of H^+/K^+-ATPase activity with K^+ and without K^+ ion. In 96-well plate, 1% dimethylsulfoxide (DMSO) in buffer was added to negative and positive control groups and the diluted compounds of the present invention in buffer were added to test group. All assays were performed in 100 μl reaction volume at room temperature, and the hog gastric vesicle was kept in ice before use. At the beginning of the reaction, 10 μl of reaction buffer containing 1% DMSO was added to the negative and positive control groups and to each concentration of compounds in the test group. Then lyophilized vesicle in 5 mM Pipes/Tris buffer (pH 6.1) was pre-incubated in the presence of various concentrations of test compounds. After a 5 minute incubation, negative and positive buffers were respectively added to the previous reaction mixture. As the substrate, ATP was added to the reaction buffer, and incubated for 30 minutes at 37° C. Enzymatic activity was stopped by the addition of colorimetric reagent (2× malachite green, 1× ammonium molybdate, 1× polyvinyl alcohol, 2× H2O) and the amount of mono phosphate (Pi) in the reaction was measured at 620 nm using the micro plate reader (Genios Pro, TECAN). The difference between the Pi production with K^+ and without K^+ is taken as K^+ stimulated H^+/K^+-ATPase activity.
A word on the IC50: it is the point on the concentration scale where inhibition reaches its midpoint. Low values mean higher potency, high ones lower potency. Take `COCCn1c(C)c(C)c2nccc(OCc3ccc(F)cc3)c21` [Example 126, 7-(4-fluorobenzyloxy)-1-(2-methoxyethyl)-2,3-dimethyl-1H-pyrrolo[3,2-b]pyridine nitrate]: the IC50 is 50 nM.

Consider `COCCn1c(C)c(C)c2nccc(OCc3ccc(F)cc3)c21` [Example 127, 7-(4-fluorobenzyloxy)-1-(2-methoxyethyl)-2,3-dimethyl-1H-pyrrolo[3,2-b]pyridine sulfate], for which it took 40 nM to reach half-maximal inhibition (IC50). The figure for `COCCn1c(C)c(C)c2nccc(OCc3ccc(F)cc3)c21` [Example 128, 7-(4-fluorobenzyloxy)-1-(2-methoxyethyl)-2,3-dimethyl-1H-pyrrolo[3,2-b]pyridine maleate] is 50 nM. Compound `COCCn1c(C)c(C)c2nccc(OCc3ccc(F)cc3)c21` [Example 129, 7-(4-fluorobenzyloxy)-1-(2-methoxyethyl)-2,3-dimethyl-1H-pyrrolo[3,2-b]pyridine phosphate] came in with an IC50 of 40 nM. The compound `COCCn1c(C)c(C)c2nccc(OCc3ccc(F)cc3)c21` [Example 130, 7-(4-fluorobenzyloxy)-1-(2-methoxyethyl)-2,3-dimethyl-1H-pyrrolo[3,2-b]pyridine malonate] yielded an IC50 of 40 nM. For `COCCn1c(C)c(C)c2nccc(OCc3ccc(F)cc3)c21` [Example 131, 7-(4-fluorobenzyloxy)-1-(2-methoxyethyl)-2,3-dimethyl-1H-pyrrolo[3,2-b]pyridine camphosulfonate], the IC50 is 60 nM. Next, `COCCn1c(C)c(C)c2nccc(OCc3ccc(F)cc3)c21` [Example 132, 7-(4-fluorobenzyloxy)-1-(2-methoxyethyl)-2,3-dimethyl-1H-pyrrolo[3,2-b]pyridine oxalate]: 50 nM. The figure for `COCCn1c(C)c(C)c2nccc(OCc3ccc(F)cc3)c21` [Example 133, 7-(4-fluorobenzyloxy)-1-(2-methoxyethyl)-2,3-dimethyl-1H-pyrrolo[3,2-b]pyridine hydrobromide] is 60 nM. On to `COCn1c(C)c(C)c2nccc(OCc3ccc(Cl)cc3Cl)c21` [Example 134, 7-(2,4-dichlorobenzyloxy)-1-methoxymethyl-2,3-dimethyl-1H-pyrrolo[3,2-b]pyridine hydrochloride], for which the midpoint of inhibition, the IC50, lay at 540 nM.

`CC(C)=CCn1c(C)c(C)c2nccc(OCc3ccc(Cl)cc3Cl)c21` [Example 135, 7-(2,4-dichlorobenzyloxy)-2,3-dimethyl-1-(3-methylbut-2-enyl)-1H-pyrrolo[3,2-b]pyridine hydrochloride] registered an IC50 of 150 nM. The figure for `Cc1c(C)n(Cc2ccccc2)c2c(OCc3ccc(Cl)cc3Cl)ccnc12` [Example 136, 1-benzyl-7-(2,4-dichlorobenzyloxy)-2,3-dimethyl-1H-pyrrolo[3,2-b]pyridine hydrochloride] is 50 nM. `CCn1c(C)c(C)c2nccc(OCc3ccc(Cl)cc3Cl)c21` [Example 137, 7-(2,4-dichlorobenzyloxy)-1-ethyl-2,3-dimethyl-1H-pyrrolo[3,2-b]pyridine hydrochloride]: the IC50 amounted to 60 nM. The figure for `COC(=O)Cn1c(C)c(C)c2nccc(OCc3ccc(Cl)cc3Cl)c21` [Example 138, 7-(2,4-dichlorobenzyloxy)-1-methoxycarbonylmethyl-2,3-dimethyl-1H-pyrrolo[3,2-b]pyridine hydrochloride] is 460 nM; for `Cc1c(C)n(Cc2ccc(F)cc2)c2c(OCc3ccc(Cl)cc3Cl)ccnc12` [Example 140, 7-(2,4-dichlorobenzyloxy)-1-(4-fluorobenzyl)-2,3-dimethyl-1H-pyrrolo[3,2-b]pyridine hydrochloride] it is 80 nM; for `COc1cccc(Cn2c(C)c(C)c3nccc(OCc4ccc(Cl)cc4Cl)c32)c1` [Example 141, 7-(2,4-dichlorobenzyloxy)-1-(3-methoxybenzyl)-2,3-dimethyl-1H-pyrrolo[3,2-b]pyridine hydrochloride] it is 90 nM. The figure for `Cc1cccc(COc2ccnc3c(C)c(C)n(Cc4ccccc4)c23)c1` [Example 144, 1-benzyl-2,3-dimethyl-7-(3-methylbenzyloxy)-1H-pyrrolo[3,2-b]pyridine hydrochloride] is 240 nM; for `CCn1c(C)c(C)c2nccc(OCc3cccc(C)c3)c21` [Example 145, 1-ethyl-2,3-dimethyl-7-(3-methylbenzyloxy)-1H-pyrrolo[3,2-b]pyridine hydrochloride] it is 530 nM; for `Cc1cccc(COc2ccnc3c(C)c(C)n(Cc4cccc(F)c4)c23)c1` [Example 146, 1-(3-fluorobenzyl)-2,3-dimethyl-7-(3-methylbenzyloxy)-1H-pyrrolo[3,2-b]pyridine hydrochloride] it is 3150 nM. As for `Cc1cccc(COc2ccnc3c(C)c(C)n(Cc4ccc(Cl)cc4)c23)c1` [Example 147, 1-(4-chlorobenzyl)-2,3-dimethyl-7-(3-methylbenzyloxy)-1H-pyrrolo[3,2-b]pyridine hydrochloride], half-maximal inhibition (IC50) required 3450 nM.

`CCCn1c(C)c(C)c2nccc(OCc3cccc(C)c3)c21` [Example 153, 2,3-dimethyl-7-(3-methylbenzyloxy)-1-propyl-1H-pyrrolo[3,2-b]pyridine hydrochloride] registered an IC50 of 1030 nM.

In the case of `Cc1cccc(COc2ccnc3c(C)c(C)n(CC4CC4)c23)c1` [Example 154, 1-cyclopropylmethyl-2,3-dimethyl-7-(3-methylbenzyloxy)-1H-pyrrolo[3,2-b]pyridine hydrochloride], the IC50 was 240 nM. Consider `C=CCn1c(C)c(C)c2nccc(OCc3cccc(C)c3)c21` [Example 155, 1-allyl-2,3-dimethyl-7-(3-methylbenzyloxy)-1H-pyrrolo[3,2-b]pyridine hydrochloride], for which the IC50 was 570 nM. As to `Cc1ccc(Cn2c(C)c(C)c3nccc(OCc4cccc(C)c4)c32)cc1` [Example 156, 2,3-dimethyl-1-(4-methylbenzyl)-7-(3-methylbenzyloxy)-1H-pyrrolo[3,2-b]pyridine hydrochloride], the IC50 came to 610 nM. Next, `COCCn1c(C)c(C)c2nccc(OCc3cccc(C)c3)c21` [Example 157, 1-(2-methoxyethyl)-2,3-dimethyl-7-(3-methylbenzyloxy)-1H-pyrrolo[3,2-b]pyridine hydrochloride]: 570 nM; `Cc1cccc(COc2ccnc3c(C)c(C)n(Cc4ccc(F)cc4)c23)c1` [Example 158, 1-(4-fluorobenzyl)-2,3-dimethyl-7-(3-methylbenzyloxy)-1H-pyrrolo[3,2-b]pyridine hydrochloride]: 320 nM.

In turn, `COc1cccc(Cn2c(C)c(C)c3nccc(OCc4cccc(C)c4)c32)c1` [Example 159, 1-(3-methoxybenzyl)-2,3-dimethyl-7-(3-methylbenzyloxy)-1H-pyrrolo[3,2-b]pyridine hydrochloride] showed an IC50 of 880 nM. The figure for `CCOc1ccccc1COc1ccnc2c(C)c(C)n(CC3CC3)c12` [Example 161, 1-cyclopropylmethyl-7-(2-ethoxybenzyloxy)-2,3-dimethyl-1H-pyrrolo[3,2-b]pyridine hydrochloride] is 580 nM; for `CCOc1ccccc1COc1ccnc2c(C)c(C)n(CCOC)c12` [Example 162, 7-(2-ethoxybenzyloxy)-1-(2-methoxyethyl)-2,3-dimethyl-1H-pyrrolo[3,2-b]pyridine hydrochloride] it is 1150 nM; for `CCOc1ccccc1COc1ccnc2c(C)c(C)n(CC3CCC3)c12` [Example 163, 1-cyclobutylmethyl-7-(2-ethoxybenzyloxy)-2,3-dimethyl-1H-pyrrolo[3,2-b]pyridine hydrochloride] it is 1010 nM.

`C=CCn1c(C)c(C)c2nccc(OCc3ccccc3OCC)c21` [Example 164, 1-allyl-7-(2-ethoxybenzyloxy)-2,3-dimethyl-1H-pyrrolo[3,2-b]pyridine hydrochloride]: the IC50 is 3000 nM.

Turning to `CCOc1ccccc1COc1ccnc2c(C)c(C)n(Cc3cccc(OC)c3)c12` [Example 177, 7-(2-ethoxybenzyloxy)-1-(3-methoxybenzyl)-2,3-dimethyl-1H-pyrrolo[3,2-b]pyridine hydrochloride], 290 nM corresponded to half-maximal inhibition (IC50). The figure for `CCOc1ccccc1COc1ccnc2c(C)c(C)n(Cc3cccc(F)c3)c12` [Example 178, 1-(3-fluorobenzyl)-7-(2-ethoxybenzyloxy)-2,3-dimethyl-1H-pyrrolo[3,2-b]pyridine hydrochloride] is 840 nM.
